Data on 20 compounds can be found in patent US4738970A, “Benzimidazolyl-thio-tetrahydroquinolines and anti-peptic ulcer compositions containing the same” (Otsuka Pharmaceutical Co., Ltd., priority 1984, dated 1988).

In assay [1] the test system is secretion of hydrochloric acid in the stomach. The assay can be described thus: Inhibitory Effect Test for the Secretion of Hydrochloric Acid in the Stomach. Format: in vivo, Wistar strain male rats. As to conditions: Rattus norvegicus; Wistar male rats, pylorus ligated, histamine dihydrochloride 1 mg/kg/hour stimulated; injected into the duodenum; probit analysis; read-out: ED50 (inhibition of the secretion of hydrochloric acid). As for the experimental part: Wistar strain male rats were used as test animals. The test animals were abstained from food for 24 hours, then the pyloric sphincter of the test animal was ligated under anesthetized condition with urethane (1.5 g/kg), and a perfusion cannula for the stomach was inserted into the stomach.
The stomach was perfused with physiological saline through a peroral catheter, and the quantity of gastric juice secreted was measured by determining the pH and by titrating the total acidity of the perfusate.
The secretion of gastric juice was accelerated by injecting histamine dihydrochloride as the secretion stimulant in the rate of 1 mg/kg/hour continuously through the femoral vein, then the effect of each of the compounds was tested. Each of the test compounds was dissolved in dimethylformamide, and the predetermined dosage (maximum: 30 mg/kg) of each of the test compounds was administered by injecting the test compound solution into the duodenum.
Inhibition rate (%) of the secretion of hydrochloric acid was calculated by taking the value of the hydrochloric acid secreted before the administration of each of the test compounds as the reference. ED50 value of each of the test compounds was calculated from the inhibitory rate (%) of each of the test compounds and treated mathematically by probit (probability unit) analysis.

The next assay addresses T1, H^+ -K^+ -ATPase (Sus scrofa, UniProt P19156).
T1 construct: which was prepared from the stomach of swine; from tissue; host or cells: stomach of swine
The assay can be described thus: Inhibitory Effect Test for the Activity of H^+ -K^+ -ATPase. As to conditions: H+-K+-ATPase from the stomach of swine; preincubation pH 6.1, room temperature 30 min; reaction pH 7.4, 37° C. 30 min; read-out: IC50 (50% inhibition dosage). In kind it is biochemical. On the procedure:
H^+ -K^+ -ATPase (hydrogen-potassium-activated adenosine triphosphatase) (protein content: 10 mcg) which was prepared from the stomach of swine was added to PIPES-tris[buffer PIPES-tris(hydroxymethyl)-2-amino-1,3-propanediol buffer (pH=6.1) containing 2 mM of piperazine-N,N'-bis(2-ethanesulfonic acid)], then the resulting mixture was let allowed to stand at room temperature.
Each of the test compounds was dissolved in dimethylformamide, and the dimethylformamide solution was added to the above-mentioned H^+ -K^+ -ATPase buffer solution so as to adjust the final concentration of the test compound to 1.0%. Each of thus prepared mixture was reacted at room temperature for 30 minutes.
Next, the above-mentioned reaction mixture was divided into two portions, and to the one portion thereof was added 1 ml of 75 mM PIPES-tris buffer solution (pH=7.4) (containing 4 mM of MgCl2, 4 mM of Na2 ATP and 20 mM of KCl), on the other hand, to another portion of the reaction mixture was added 1 ml of 75 mM PIPES-tris buffer solution (pH=7.4) (containing 4 mM of MgCl2 and 4 mM of Na2 ATP), respectively. Each of these two series of sample solutions was separately reacted at 37° C. for 30 minutes. Then to each of these reaction mixtures was added 0.3 ml of 40% trichloroacetic acid to terminate the reaction, and was subjected to centrifugal separation at 3,000 rpm for 10 minutes to obtain the supernatent. Next, the inorganic phosphoric acid formed in the reaction mixture was determined by a method according to the article by C. H. Fiske and Y. Subbarow: J. Biol. Chem., Vol. 66, pages 375-400, (1925). The difference of the value obtained by substracting the quantity of inorganic phosphoric acid determined by using PIPES-tris buffer solution without containing 20 mM of KCl from the quantity of inorganic phosphoric acid determined by using PIPES-tris buffer solution containing 20 mM of KCl, was converted into as activity value of enzyme with respect to the unit protein and unit time.
Inhibitory rate (%) of each of the test compounds was obtained from the activity value of the enzyme at the respective dosages in the test groups and those of obtained from the control group, then IC50 (50% inhibition dosage of each of the test compounds) was calculated from the inhibitory rate (%).

T1 sequence (P19156 2-1034 limits assumed): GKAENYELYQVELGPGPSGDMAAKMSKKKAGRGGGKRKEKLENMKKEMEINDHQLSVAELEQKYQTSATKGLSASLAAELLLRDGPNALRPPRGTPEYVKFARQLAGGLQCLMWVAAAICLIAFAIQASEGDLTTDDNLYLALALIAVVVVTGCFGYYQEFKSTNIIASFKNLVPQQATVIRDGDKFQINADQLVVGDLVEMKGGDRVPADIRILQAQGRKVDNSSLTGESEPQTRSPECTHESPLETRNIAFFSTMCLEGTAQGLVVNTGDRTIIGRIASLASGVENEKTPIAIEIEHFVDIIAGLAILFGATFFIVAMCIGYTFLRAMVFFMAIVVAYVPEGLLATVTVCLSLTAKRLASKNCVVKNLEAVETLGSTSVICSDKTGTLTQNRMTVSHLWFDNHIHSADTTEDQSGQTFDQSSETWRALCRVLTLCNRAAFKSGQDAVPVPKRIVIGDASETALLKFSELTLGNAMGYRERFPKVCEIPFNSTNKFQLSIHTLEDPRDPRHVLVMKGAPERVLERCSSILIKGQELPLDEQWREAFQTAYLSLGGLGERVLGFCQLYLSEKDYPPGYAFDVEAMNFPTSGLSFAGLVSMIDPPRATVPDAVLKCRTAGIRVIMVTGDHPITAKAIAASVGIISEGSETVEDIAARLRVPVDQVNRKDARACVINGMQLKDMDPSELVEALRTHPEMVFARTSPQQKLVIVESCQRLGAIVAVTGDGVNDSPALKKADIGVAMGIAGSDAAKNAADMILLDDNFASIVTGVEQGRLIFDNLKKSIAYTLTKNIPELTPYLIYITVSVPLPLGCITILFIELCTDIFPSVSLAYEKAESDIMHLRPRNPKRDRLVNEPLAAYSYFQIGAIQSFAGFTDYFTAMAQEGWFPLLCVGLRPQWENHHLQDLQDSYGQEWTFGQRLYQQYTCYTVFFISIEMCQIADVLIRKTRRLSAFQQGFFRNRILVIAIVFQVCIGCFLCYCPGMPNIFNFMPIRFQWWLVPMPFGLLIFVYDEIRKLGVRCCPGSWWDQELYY
T1 sequence (P18434 whole entry partner): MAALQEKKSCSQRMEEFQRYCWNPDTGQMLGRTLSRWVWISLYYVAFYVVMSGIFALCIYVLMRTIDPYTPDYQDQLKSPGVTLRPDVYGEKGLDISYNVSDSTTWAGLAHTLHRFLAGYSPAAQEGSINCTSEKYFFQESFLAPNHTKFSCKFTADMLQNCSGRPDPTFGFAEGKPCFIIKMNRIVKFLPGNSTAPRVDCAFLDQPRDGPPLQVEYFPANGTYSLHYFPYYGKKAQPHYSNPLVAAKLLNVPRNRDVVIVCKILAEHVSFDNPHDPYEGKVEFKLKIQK

As usually defined, the ED50 is the dose at which the effect has come halfway, by size or by number of responders. As a reminder, the IC50 is the concentration needed to halve the response being measured. Consider `[O-][S+](c1nc2ccccc2[nH]1)C1CCCc2cccnc21` (stereo not shown) [Test compound 12, 8-(2-Benzimidazolyl)sulfinyl-5,6,7,8-tetrahydroquinoline], for which, in assay [1], the median effective dose (ED50) was found to be 8.5 mg/kg. Moreover, the IC50 at H^+ -K^+ -ATPase was 1200 nM.
Regarding `Cc1ccc2nc([S+]([O-])C3CCCc4cccnc43)[nH]c2c1` (stereo not shown) [Test compound 17, 8-(5-Methyl-2-benzimidazolyl)sulfinyl-5,6,7,8-tetrahydroquinoline], the ED50 in assay [1] is 17.2 mg/kg. Further, on H^+ -K^+ -ATPase, the IC50 was 1900 nM.
Regarding `[O-][S+](c1nc2ccc(Cl)cc2[nH]1)C1CCCc2cccnc21` (stereo not shown) [Test compound 20, 8-(5-Chloro-2-benzimidazolyl)sulfinyl-5,6,7,8-tetrahydroquinoline], the ED50 in assay [1] amounted to 4.4 mg/kg. At H^+ -K^+ -ATPase, the IC50 came to 1000 nM.
On the same counts, the results for `COc1ccc2nc([S+]([O-])C3CCCc4cc(C)cnc43)[nH]c2c1` (stereo not shown) [Test compound 26, 3-Methyl-8-(5-methoxy-2-benzimidazolyl)-sulfinyl-5,6,7,8-tetrahydroquinoline] are 15.7 mg/kg and 3700 nM.
In the case of `[O-][S+](c1nc2ccc(F)cc2[nH]1)C1CCCc2cccnc21` (stereo not shown) [Test compound 32, 8-(5-Fluoro-2-benzimidazolyl)sulfinyl-5,6,7,8-tetrahydroquinoline], in assay [1], the ED50 stood at 5.2 mg/kg. Also, on H^+ -K^+ -ATPase, the IC50 was 1700 nM.
Turning to `COc1c(C)cnc2c1CCCC2[S+]([O-])c1nc2cc(C)c(C)cc2[nH]1` (stereo not shown) [Test compound 38, 3-Methyl-4-methoxy-8-(5,6-dimethyl-2-benzimidazolyl)sulfinyl-5,6,7,8-tetrahydroquinoline], the IC50 on H^+ -K^+ -ATPase was 340 nM.
On the same count and under the same terms, to `Cc1cnc2c(c1)C([S+]([O-])c1nc3ccc(C(F)(F)F)cc3[nH]1)CCC2` (stereo not shown) [Test compound 39, 3-Methyl-5-(5-trifluoromethyl-2-benzimidazolyl)sulfinyl-5,6,7,8-tetrahydroquinoline] belongs 2980 nM.
With `Cc1cnc2c(c1)CCCC2[S+]([O-])c1nc2ccc(F)cc2[nH]1` (stereo not shown) [Test compound 40, 3-Methyl-8-(5-fluoro-2-benzimidazolyl)-sulfinyl-5,6,7,8-tetrahydroquinoline], the IC50 at H^+ -K^+ -ATPase came to 1900 nM.
Same read-out and setting: to `COc1c(C)cnc2c1CCCC2[S+]([O-])c1nc2cc(Cl)c(Cl)cc2[nH]1` (stereo not shown) [Test compound 41, 3-Methyl-4-methoxy-8-(5,6-dichloro-2-benzimidazolyl)sulfinyl-5,6,7,8-tetrahydroquinoline] belongs 99 nM; to `CCOc1cc2[nH]c([S+]([O-])C3CCCc4c3ncc(C)c4OC)nc2cc1F` (stereo not shown) [Test compound 42, 3-Methyl-4-methoxy-8-(5-ethoxy-6-fluoro-2-benzimidazolyl)sulfinyl-5,6,7,8-tetrahydroquinoline], 240 nM.
The same measure, in the same setting: the same measure for `COc1c(C)cnc2c1CCCC2[S+]([O-])c1nc2cc(F)c(F)cc2[nH]1` (stereo not shown) [Test compound 43, 3-Methyl-4-methoxy-8-(5,6-difluoro-2-benzimidazolyl)sulfinyl-5,6,7,8-tetrahydroquinoline]: 280 nM.
The same measure, in the same setting: the same measure for `COc1c(C)cnc(C[S+]([O-])c2nc3nc(Br)ccc3[nH]2)c1C` (stereo not shown) [Test compound 45, 5-Bromo-2-[(3,5-dimethyl-4-methoxy-2-pyridyl)methylsulfinyl]imidazo[4,5-b]pyridine]: 2340 nM.
`COc1c(C)cnc(C[S+]([O-])c2nc3cnccc3[nH]2)c1C` (stereo not shown) [Test compound 46, 2-[(3,5-Dimethyl-4-methoxy-2-pyridyl)-methylsulfinyl]imidazo[4,5-c]pyridine]: on H^+ -K^+ -ATPase, the IC50 was determined as 29200 nM.
For `c1ccc(CSc2nc3ncccc3[nH]2)nc1` [Test compound 47, 2-(2-Pyridylmethylthio)imidazo[4,5-b]pyridine, reference compound], the IC50 on H^+ -K^+ -ATPase was greater than 100000 nM.
On the same count and under the same terms, the same measure for `COc1cc2nc([S+]([O-])C3CCCc4c3ncc(C)c4OC)[nH]c2cc1F` (stereo not shown) [Test compound 48, 3-Methyl-4-methoxy-8-(5-fluoro-6-methoxy-2-benzimidazolyl)sulfinyl-5,6,7,8-tetrahydroquinoline]: 310 nM.
Same read-out and setting: the same measure for `COc1ccc2nc([S+]([O-])C3CCCc4c3ncc(C)c4OC)[nH]c2c1` (stereo not shown) [Test compound 49, 3-Methyl-4-methoxy-8-(5-methoxy-2-benzimidazolyl)sulfinyl-5,6,7,8-tetrahydroquinoline]: 280 nM; for `COc1c(C)cnc2c1CCCC2[S+]([O-])c1nc2ccc(Cl)cc2[nH]1` (stereo not shown) [Test compound 50, 3-Methyl-4-methoxy-8-(5-chloro-2-benzimidazolyl)sulfinyl-5,6,7,8-tetrahydroquinoline]: 180 nM.
Regarding `COc1ccnc2c1CCCC2[S+]([O-])c1nc2ccc(F)cc2[nH]1` (stereo not shown) [Test compound 51, 4-Methoxy-8-(5-fluoro-2-benzimidazolyl)-sulfinyl-5,6,7,8-tetrahydroquinoline], at H^+ -K^+ -ATPase, the IC50 is 99 nM.
With `Cc1cnc2c(c1)CCCC2[S+]([O-])c1nc2cc(Cl)c(Cl)cc2[nH]1` (stereo not shown) [Test compound 52, 3-Methyl-8-(5,6-dichloro-2-benzimidazolyl)-sulfinyl-5,6,7,8-tetrahydroquinoline], the half-inhibitory concentration (IC50) at H^+ -K^+ -ATPase came out at 230 nM.
As for `Cc1cnc2c(c1)CCCC2[S+]([O-])c1nc2cc(C)c(C)cc2[nH]1` (stereo not shown) [Test compound 53, 3-Methyl-8-(5,6-dimethyl-2-benzimidazolyl)-sulfinyl-5,6,7,8-tetrahydroquinoline], on H^+ -K^+ -ATPase, the IC50 is 580 nM.
